# Measurements reported in patent publication US20250215029A1 (Recludix Pharma, Inc., priority 2022, published 2025).
# Where two headings read alike, the source gives them in different places.
# What was measured:
# pY705-STAT3 in PBMC = molecular target: T1, pY705-STAT3 in PBMC (Homo sapiens, UniProt P40763); test: MSD-pSTAT-PBMC Assay (pSTAT3, IL-6 stimulated); format: cell-based; conditions: PBMC, compound 3 hrs, then 10 ng/mL IL-6 for 10 min
# T1 construct: Cryopreserved Peripheral Blood Mononuclear Cells (PBMC) are from AllCells; host or cells: cryopreserved PBMC
# Outline: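 Human PBMCs were pretreated with compound for 3 h, then stimulated with 10 ng/mL IL-6 for 10 min. Lysate pY705-STAT3 was measured by MSD sandwich immunoassay (anti-STAT3 capture) and corrected for unstimulated background. Signal was normalized to DMSO, and IC50 came from variable-slope regression.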
# pY641-STAT6 in PBMC = molecular target: T2, pY641-STAT6 in PBMC (Homo sapiens, UniProt P42226); test: MSD-pSTAT-PBMC Assay (pSTAT6, IL-4 stimulated); format: cell-based; conditions: compound 3 hrs, then 1 ng/mL IL-4 for 10 min
# T2 construct: Cryopreserved Peripheral Blood Mononuclear Cells (PBMC) are from AllCells; host or cells: cryopreserved PBMC
# T2 sequence (P42226 1-847): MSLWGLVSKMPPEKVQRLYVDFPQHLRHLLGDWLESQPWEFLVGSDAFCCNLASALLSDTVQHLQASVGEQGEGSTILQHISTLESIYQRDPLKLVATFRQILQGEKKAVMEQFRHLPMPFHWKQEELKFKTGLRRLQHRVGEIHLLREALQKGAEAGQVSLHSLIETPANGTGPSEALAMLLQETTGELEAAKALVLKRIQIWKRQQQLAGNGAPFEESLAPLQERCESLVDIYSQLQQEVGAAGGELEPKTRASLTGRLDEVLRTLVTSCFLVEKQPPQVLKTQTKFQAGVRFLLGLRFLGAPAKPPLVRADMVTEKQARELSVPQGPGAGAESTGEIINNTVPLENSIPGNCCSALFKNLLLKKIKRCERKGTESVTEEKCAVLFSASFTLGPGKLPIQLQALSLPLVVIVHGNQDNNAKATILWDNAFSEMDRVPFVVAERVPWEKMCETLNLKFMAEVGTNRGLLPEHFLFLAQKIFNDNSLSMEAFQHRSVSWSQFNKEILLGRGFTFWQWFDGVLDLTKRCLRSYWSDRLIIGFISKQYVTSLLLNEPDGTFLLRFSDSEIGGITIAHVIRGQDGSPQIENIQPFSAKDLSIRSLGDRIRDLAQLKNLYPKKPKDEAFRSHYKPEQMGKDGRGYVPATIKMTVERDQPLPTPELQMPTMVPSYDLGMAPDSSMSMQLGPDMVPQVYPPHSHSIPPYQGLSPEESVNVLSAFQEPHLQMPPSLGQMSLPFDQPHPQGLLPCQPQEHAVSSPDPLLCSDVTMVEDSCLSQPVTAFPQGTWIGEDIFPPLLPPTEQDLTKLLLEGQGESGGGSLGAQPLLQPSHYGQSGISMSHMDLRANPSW
# Outline: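 Inhibition of cytokine-induced STAT phosphorylation was measured in recovered human PBMC after 3 hrs compound exposure and a 10 min IL-4 (1 ng/mL) or IL-6 (10 ng/mL) challenge. MSD detection of pY641-STAT6 or pY705-STAT3 yielded IC50 values.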
# [1] = PBMC, Table 1114, read-out: pSTAT6
# T1 sequence (P40763 whole entry): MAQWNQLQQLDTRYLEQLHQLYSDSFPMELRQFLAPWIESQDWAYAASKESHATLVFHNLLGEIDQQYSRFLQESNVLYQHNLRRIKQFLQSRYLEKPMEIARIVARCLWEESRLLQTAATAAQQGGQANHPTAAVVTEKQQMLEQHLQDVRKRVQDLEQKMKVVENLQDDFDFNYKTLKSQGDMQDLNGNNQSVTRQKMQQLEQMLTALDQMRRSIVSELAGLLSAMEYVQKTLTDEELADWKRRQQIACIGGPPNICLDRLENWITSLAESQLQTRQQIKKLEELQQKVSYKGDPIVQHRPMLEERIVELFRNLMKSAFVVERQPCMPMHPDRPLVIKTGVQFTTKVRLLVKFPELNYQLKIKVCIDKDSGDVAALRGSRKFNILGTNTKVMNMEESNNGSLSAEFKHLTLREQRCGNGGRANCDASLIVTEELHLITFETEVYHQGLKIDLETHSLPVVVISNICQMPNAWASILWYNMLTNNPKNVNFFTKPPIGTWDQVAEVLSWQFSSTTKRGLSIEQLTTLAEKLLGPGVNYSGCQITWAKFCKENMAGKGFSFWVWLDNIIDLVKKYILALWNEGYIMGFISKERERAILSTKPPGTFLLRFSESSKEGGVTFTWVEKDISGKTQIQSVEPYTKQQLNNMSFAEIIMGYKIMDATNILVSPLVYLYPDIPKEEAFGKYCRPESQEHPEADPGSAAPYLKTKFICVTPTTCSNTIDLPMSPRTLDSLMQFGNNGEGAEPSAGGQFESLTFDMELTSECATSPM
"IC50 (pY705-STAT3 in PBMC; Table 1114, read-out: pSTAT3)",IC50 (pY641-STAT6 in PBMC; [1]),SMILES,"IC50 (pY641-STAT6 in PBMC; pSTAT6, PBMC, Table 1114)","IC50 (pY705-STAT3 in PBMC; Table 115, read-out: STAT3)","IC50 (pY641-STAT6 in PBMC; STAT6, PBMC, Table 115)"
1000 to 3000 nM,> 3000 nM,"CC(C)(CO)C(=O)SCCOP(=O)(OCCSC(=O)C(C)(C)CO)C(F)(F)c1ccc2sc(C(=O)N[C@H]3CCCC[C@H]4CC[C@@H](C(=O)N5C[C@@H](C#N)[C@H](c6ccccc6)C5)N4C3=O)cc2c1 (single isomer, unassigned) [Compound 200, S,S′-(((((2-(((3S,6S,10a S)-3-((3S,4R or 3R,4S)-3-cyano-4-phenylpyrrolidine-1-carbonyl)-5-oxodecahydro-pyrrolo [1,2-a]azocin-6-yl)carbamoyl)benzo[b]thiophen-5-yl)difluoromethyl)phosphoryl)bis(oxy))bis(ethane-2,1-diyl)) bis(3-hydroxy-2,2-dimethyl-propanethioate)]",–,–,–
< 100 nM,< 100 nM,"CC(C)(C)C(=O)OCOP(=O)(OCOC(=O)C(C)(C)C)C(F)(F)c1ccc2ccc(C(=O)N[C@H]3CCCC[C@H]4CC[C@@H](C(=O)N5C[C@@H](C#N)[C@]6(C5)C(=O)Nc5ccccc56)N4C3=O)cc2c1 (single isomer, unassigned) [Compound 193]",–,–,–
> 3000 nM,> 3000 nM,"CC(C)(C)C(=O)OCOP(=O)(OCOC(=O)C(C)(C)C)C(F)(F)c1ccc2sc(C(=O)N[C@H]3CCCC[C@H]4CCC[C@@H](C(=O)N5CC(n6ccnc6)C5)N4C3=O)cc2c1 [Compound 171, ((((2-(((4S,7S,11aS)-4-(3-(1H-imidazol-1-yl)azetidine-1-carbonyl)-6-oxodecahydro-2H-pyrido[1,2-a]azocin-7-yl)carbamoyl)benzo[b]thiophen-5-yl)difluoromethyl)phosphoryl)bis(oxy)) bis(methylene) bis(2,2-dimethylpropanoate)]",–,–,–
< 100 nM,> 3000 nM,"CC(C)OC(=O)OCOP(=O)(OCOC(=O)OC(C)C)C(F)(F)c1ccc2sc(C(=O)N[C@H]3CCC[C@H]4CC[C@@H](C(=O)N5CC(c6cccnc6)C5)N4C3=O)cc2c1 [Compound 180, (((difluoro(2-(((3S,6S,9aS)-5-oxo-3-(3-(pyridin-3-yl)azetidine-1-carbonyl)octahydro-1H-pyrrolo[1,2-a]azepin-6-yl)carbamoyl)benzo[b]thiophen-5-yl)methyl)phosphoryl)bis(oxy)) bis(methylene) diisopropyl bis(carbonate)]",–,–,–
> 3000 nM,100 to 1000 nM,"CC(C)(C)C(=O)SCCOP(=O)(OCCSC(=O)C(C)(C)C)C(F)(F)c1ccc2sc(C(=O)N[C@H]3C[C@@H](O)CC[C@H]4CC[C@@H](C(=O)N5C[C@@H](C#N)[C@H](c6ccccc6)C5)N4C3=O)cc2c1 (single isomer, unassigned) [Compound 129, S,S′-(((((2-(((3S,6S,8S,10aR)-3-((3S,4R or 3R,4S)-3-cyano-4-phenylpyrrolidine-1-carbonyl)-8-hydroxy-5-oxodecahydro-pyrrolo[1,2-a]azocin-6-yl)carbamoyl)benzo [b]thiophen-5-yl)difluoromethyl)phosphoryl)bis(oxy))bis(ethane-2,1-diyl)) bis(2,2-dimethylpropane-thioate]",–,–,–
< 100 nM,< 100 nM,"CC(C)CC(=O)SCCOP(=O)(OCCSC(=O)CC(C)C)C(F)(F)c1ccc2ccc(C(=O)N[C@H]3CCCC[C@H]4CC[C@@H](C(=O)N5CCC(c6cc[nH]c(=O)c6)C5)N4C3=O)cc2c1 (stereo partly drawn) [Compound 160, S,S′-((((difluoro(7-(((3S,6S,10aS)-5-oxo-3-(3-(2-oxo-1,2-dihydropyridin-4-yl)pyrrolidine-1-carbonyl)decahydropyrrolo [1,2-a]azocin-6-yl)carbamoyl)naphthalen-2-yl)methyl)phosphoryl)bis(oxy))bis(ethane-2,1-diyl)) bis(3-methylbutane thioate)]",–,–,–
100 to 1000 nM,100 to 1000 nM,"CC(C)OC(=O)OCOP(=O)(OCOC(=O)OC(C)C)[C@H](F)c1ccc2sc(C(=O)N[C@H]3CCCC[C@H]4CC[C@@H](C(=O)N5C[C@H](c6cc[nH]c(=O)c6)[C@@H](C#N)C5)N4C3=O)cc2c1 (single isomer, unassigned) [Compound 164]",–,–,–

# Continued, compound first:
SMILES,"IC50 (pY705-STAT3 in PBMC; Table 1114, read-out: pSTAT3)",IC50 (pY641-STAT6 in PBMC; [1]),"IC50 (pY641-STAT6 in PBMC; pSTAT6, PBMC, Table 1114)","IC50 (pY705-STAT3 in PBMC; Table 115, read-out: STAT3)","IC50 (pY641-STAT6 in PBMC; STAT6, PBMC, Table 115)"
"CC(C)OC(=O)[C@H](C)NP(=O)(Oc1ccccc1)C(F)c1ccc2sc(C(=O)N[C@H]3CCC[C@H]4CC[C@@H](C(=O)N5CC(c6cccnc6)C5)N4C3=O)cc2c1 (stereo partly drawn) [Compound 196, isopropyl ((fluoro(2-(((3S,6S,9aS)-5-oxo-3-(3-(pyridin-3-yl)azetidine-1-carbonyl)octahydro-1H-pyrrolo[1,2-a]azepin-6-yl)carbamoyl)benzo[b]thiophen-5-yl)methyl) (phenoxy)phosphoryl)-L-alaninate]",100 to 1000 nM,–,> 3000 nM,–,–
"CCCOC(=O)[C@H](C)NP(=O)(Cc1ccc2sc(C(=O)N[C@H]3CC4(CC[C@H]5CC[C@@H](C(=O)N6CC(c7cccnc7)C6)N5C3=O)CC4)cc2c1)Oc1ccccc1 (stereo partly drawn) [Compound 302, propyl (((2-(((3′S,6′S,10a′S)-5′-oxo-3′-(3-(pyridin-3-yl)azetidine-1-carbonyl)octahydro-5′H-spiro[cyclopropane-1,8′-pyrrolo[1,2-a]azocin]-6′-yl)carbamoyl)benzo [b]thiophen-5-yl)methyl)(phenoxy)phosphoryl)-L-alaninate]",–,–,–,< 100 nM,1000 to 3000 nM
"CCCOC(=O)[C@H](C)NP(=O)(Cc1ccc2sc(C(=O)N[C@H]3CCC[C@H]4CC[C@@H](C(=O)N5CC(c6cnccc6OC)C5)N4C3=O)cc2c1)Oc1ccccc1 (stereo partly drawn) [Compound 255, propyl (((2-(((3S,6S,9aS)-3-(3-(4-methoxypyridin-3-yl)azetidine-1-carbonyl)-5-oxooctahydro-1H-pyrrolo[1,2-a]azepin-6-yl)carbamoyl)benzo [b]thiophen-5-yl)methyl)(phenoxy)phosphoryl)-L-alaninate]",–,–,–,< 100 nM,> 3000 nM
"CCCOC(=O)[C@H](C)NP(=O)(Oc1ccccc1)C(F)c1ccc2sc(C(=O)N[C@H]3CCC[C@H]4CC[C@@H](C(=O)N5CC(c6cnccc6OC)C5)N4C3=O)cc2c1 (stereo partly drawn) [Compound 262, propyl ((fluoro(2-(((3S,6S,9aS)-3-(3-(4-methoxypyridin-3-yl)azetidine-1-carbonyl)-5-oxooctahydro-1H-pyrrolo[1,2-a]azepin-6-yl)carbamoyl)benzo [b]thiophen-5-yl)methyl)(phenoxy)phosphoryl)-L-alaninate]",–,–,–,< 100 nM,> 3000 nM
"CC(C)OC(=O)[C@H](C)NP(=O)(Oc1ccccc1)C(F)c1ccc2sc(C(=O)N[C@H]3CCCC[C@H]4CC[C@@H](C(=O)N5C[C@H](c6cc[nH]c(=O)c6)[C@@H](C#N)C5)N4C3=O)cc2c1 (single isomer, unassigned) [Compound 198, isopropyl (((2-(((3S,6S,10aS)-3-((3R,4S or 3S,4R)-3-cyano-4-(2-oxo-1,2-dihydropyridin-4-yl)pyrrolidine-1-carbonyl)-5-oxodecahydro-pyrrolo[1,2-a]azocin-6-yl)carbamoyl)benzo[b]thiophen-5-yl)fluoro-methyl) (phenoxy)phosphoryl)-L-alaninate]",> 3000 nM,–,> 3000 nM,–,–
"CCCC(=O)SCCOP(=O)(Cc1ccc2sc(C(=O)N[C@H]3CCCC[C@H]4CC[C@@H](C(=O)N5CC(C#N)C(c6ccccc6)C5)N4C3=O)cc2c1)OCCSC(=O)CCC (single isomer, unassigned) [Compound 125, S,S′-(((((2-(((3S,6S,10aS)-3-((3S,4R or 3R,4S)-3-cyano-4-phenylpyrrolidine-1-carbonyl)-5-oxodecahydropyrrolo[1,2-a]azocin-6-yl)carbamoyl)benzo[b]thiophen-5-yl)methyl)phosphoryl)bis(oxy))bis(ethane-2,1-diyl))dibutanethioate]",> 3000 nM,1000 to 3000 nM,–,–,–
"CCCOC(=O)[C@H](C)NP(=O)(Oc1ccccc1)C(F)c1ccc2sc(C(=O)N[C@H]3CCCC[C@H]4CC[C@@H](C(=O)N5CCC(c6cccnc6)C5)N4C3=O)cc2c1 (stereo partly drawn) [Compound 320, propyl ((fluoro(2-(((3S,6S,10aS)-5-oxo-3-(3-(pyridin-3-yl)pyrrolidine-1-carbonyl)decahydropyrrolo[1,2-a]azocin-6-yl)carbamoyl)benzo [b]thiophen-5-yl)methyl)(phenoxy)phosphoryl)-L-alaninate]",–,–,–,< 100 nM,100 to 1000 nM
